Reference: patent US9796706B2, “Inhibitors of Jun N-terminal kinase” (IMAGO PHARMACEUTICALS, INC., priority 2009, dated 2017)
pIC50: −log10 of the molar value.

How the values were obtained:
Format in all cases: biochemical
Settings in all cases: procedures of Example 14 (TR-FRET)
JNK3 = JNK3 (Homo sapiens (Human), UniProt P53779); test: JNK3 TR-FRET kinase assay (Example 14)
Outline: (§1)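 Two TR-FRET formats were used for each JNK isoform. In the direct one, preactivated aJNK phosphorylated EPIW-1 at about 1 mM final ATP (RT, 15 min). Both were EDTA-quenched and read by HTRF.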

JNK1 = JNK1 (Homo sapiens (Human), UniProt P45983); test: JNK1 TR-FRET kinase assay (Example 14)
Outline: as §1

JNK2 = JNK2 (Homo sapiens (Human), UniProt P45984); test: JNK2 TR-FRET kinase assay (Example 14)
Outline: as §1

JNK3, sequence (P53779 whole entry, species assumed, canonical isoform): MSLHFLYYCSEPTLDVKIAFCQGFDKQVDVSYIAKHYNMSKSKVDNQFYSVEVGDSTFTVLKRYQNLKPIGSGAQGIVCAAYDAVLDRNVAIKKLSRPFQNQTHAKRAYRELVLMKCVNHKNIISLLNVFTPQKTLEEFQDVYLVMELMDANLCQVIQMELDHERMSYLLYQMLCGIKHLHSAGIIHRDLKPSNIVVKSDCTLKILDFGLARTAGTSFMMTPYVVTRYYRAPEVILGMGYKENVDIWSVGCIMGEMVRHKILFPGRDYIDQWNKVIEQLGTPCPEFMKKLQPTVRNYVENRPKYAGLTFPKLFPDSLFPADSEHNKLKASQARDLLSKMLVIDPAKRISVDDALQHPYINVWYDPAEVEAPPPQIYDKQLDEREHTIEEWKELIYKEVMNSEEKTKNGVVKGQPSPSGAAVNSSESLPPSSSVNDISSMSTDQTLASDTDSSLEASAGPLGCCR
JNK2, sequence (P45984 whole entry, species assumed): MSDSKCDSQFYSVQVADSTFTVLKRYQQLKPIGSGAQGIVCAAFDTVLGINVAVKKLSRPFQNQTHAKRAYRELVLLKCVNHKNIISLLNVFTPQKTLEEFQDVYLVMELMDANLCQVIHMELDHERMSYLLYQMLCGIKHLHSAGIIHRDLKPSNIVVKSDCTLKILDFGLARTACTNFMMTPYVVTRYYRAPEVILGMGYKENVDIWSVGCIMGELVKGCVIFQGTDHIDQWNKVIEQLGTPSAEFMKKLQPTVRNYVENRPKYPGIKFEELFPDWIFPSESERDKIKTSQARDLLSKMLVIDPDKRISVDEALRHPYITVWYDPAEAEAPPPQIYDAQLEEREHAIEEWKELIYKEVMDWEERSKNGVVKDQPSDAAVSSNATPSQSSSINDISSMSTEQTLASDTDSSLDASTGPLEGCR
JNK1, sequence (P45983 other isoform, or with tags, fused parts or gaps isoform P45983-2, species assumed): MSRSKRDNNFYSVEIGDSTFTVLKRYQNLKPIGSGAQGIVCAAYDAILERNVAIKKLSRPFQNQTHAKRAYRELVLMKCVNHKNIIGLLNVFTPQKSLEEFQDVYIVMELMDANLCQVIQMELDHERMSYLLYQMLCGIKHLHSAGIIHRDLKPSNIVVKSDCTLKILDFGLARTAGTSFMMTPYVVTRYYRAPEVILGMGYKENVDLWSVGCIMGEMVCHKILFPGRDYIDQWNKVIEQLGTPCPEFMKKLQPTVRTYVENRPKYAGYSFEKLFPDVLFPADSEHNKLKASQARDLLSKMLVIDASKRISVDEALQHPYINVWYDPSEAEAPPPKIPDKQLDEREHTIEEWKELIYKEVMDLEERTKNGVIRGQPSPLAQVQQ

| Structure (SMILES) | pIC50 (JNK3) | pIC50 (JNK1) | pIC50 (JNK2) |
| --- | --- | --- | --- |
| O=C(Cc1cc(C(F)(F)F)c2cccnc2c1)Nc1scc(Br)c1-c1nnc[nH]1 [N-(4-bromo-3-(4H-1,2,4-triazol-3-yl)thiophen-2-yl)-2-(5-(trifluoromethyl)quinolin-7-yl)acetamide] | 5.00 to 7.00 | 5.00 to 7.00 | 5.00 to 7.00 |
| O=C(Cc1cc(C(F)(F)F)cc2ncccc12)Nc1scc(Br)c1-c1nnc[nH]1 [N-(4-bromo-3-(4H-1,2,4-triazol-3-yl)thiophen-2-yl)-2-(7-(trifluoromethyl)quinolin-5-yl)acetamide] | 5.00 to 7.00 | 5.00 to 7.00 | 5.00 to 7.00 |
| O=C(Cc1cncc2ccccc12)Nc1scc(Br)c1-c1nnc[nH]1 [N-(4-bromo-3-(4H-1,2,4-triazol-3-yl)thiophen-2-yl)-2-(isoquinolin-4-yl)acetamide] | > 7.00 | > 7.00 | 5.00 to 7.00 |
| O=C(Cc1ccnc2ccccc12)Nc1scc(Br)c1-c1nnc[nH]1 [N-(4-bromo-3-(4H-1,2,4-triazol-3-yl)thiophen-2-yl)-2-(quinolin-4-yl)acetamide] | > 7.00 | > 7.00 | 5.00 to 7.00 |
| O=C(CN1C(=O)CCc2ncccc21)Nc1scc(Br)c1-c1ncco1 [N-(4-bromo-3-(oxazol-2-yl)thiophen-2-yl)-2-(2-oxo-3,4-dihydro-1,5-naphthyridin-1(2H)-yl)acetamide] | > 7.00 | > 7.00 | > 7.00 |
| O=C(CN1C(=O)CCc2ncccc21)Nc1scc(Br)c1-c1nccs1 [N-(4-bromo-3-(thiazol-2-yl)thiophen-2-yl)-2-(2-oxo-3,4-dihydro-1,5-naphthyridin-1(2H)-yl)acetamide] | > 7.00 | > 7.00 | 5.00 to 7.00 |
| CN(C)CCn1cnc(-c2c(Cl)csc2NC(=O)Cn2c(=O)ccc3cc(C(F)(F)F)ccc32)n1 [N-(4-chloro-3-(1-(2-(dimethylamino)ethyl)-1H-1,2,4-triazol-3-yl)thiophen-2-yl)-2-(2-oxo-6-(trifluoromethyl)quinolin-1(2H)-yl)acetamide] | > 7.00 | > 7.00 | > 7.00 |
| CN1CCN(CCCn2cnc(-c3c(Cl)csc3NC(=O)Cn3c(=O)ccc4cc(C(F)(F)F)ccc43)n2)CC1 [N-(4-chloro-3-(1-(3-(4-methylpiperazin-1-yl)propyl)-1H-1,2,4-triazol-3-yl)thiophen-2-yl)-2-(2-oxo-6-(trifluoromethyl)quinolin-1(2H)-yl)acetamide] | > 7.00 | > 7.00 | 5.00 to 7.00 |
| CN(C)CCCn1cnc(-c2c(Cl)csc2NC(=O)Cn2c(=O)ccc3cc(C(F)(F)F)ccc32)n1 [N-(4-chloro-3-(1-(3-(dimethylamino)propyl)-1H-1,2,4-triazol-3-yl)thiophen-2-yl)-2-(2-oxo-6-(trifluoromethyl)quinolin-1(2H)-yl)acetamide] | > 7.00 | > 7.00 | > 7.00 |
| O=C(Cn1c(=O)ccc2cc(C(F)(F)F)ccc21)Nc1scc(Cl)c1-c1ncn(CCCN2CCCC2)n1 [N-(4-chloro-3-(1-(3-(pyrrolidin-1-yl)propyl)-1H-1,2,4-triazol-3-yl)thiophen-2-yl)-2-(2-oxo-6-(trifluoromethyl)quinolin-1(2H)-yl)acetamide] | > 7.00 | > 7.00 | > 7.00 |
| O=C(Cn1c(=O)ccc2cc(C(F)(F)F)ccc21)Nc1scc(Cl)c1-c1ncn(CCCN2CCOCC2)n1 [N-(4-chloro-3-(1-(3-morpholinopropyl)-1H-1,2,4-triazol-3-yl)thiophen-2-yl)-2-(2-oxo-6-(trifluoromethyl)quinolin-1(2H)-yl)acetamide] | > 7.00 | > 7.00 | > 7.00 |
| Cn1cnc(-c2c(Cl)csc2NC(=O)CN2C(=O)CCc3ncccc32)n1 [N-(4-chloro-3-(1-methyl-1H-1,2,4-triazol-3-yl)thiophen-2-yl)-2-(2-oxo-3,4-dihydro-1,5-naphthyridin-1(2H)-yl)acetamide] | > 7.00 | > 7.00 | > 7.00 |
| Cn1cnc(-c2c(Cl)csc2NC(=O)Cn2c(=O)ccc3nc(C(F)(F)F)ccc32)n1 [N-(4-chloro-3-(1-methyl-1H-1,2,4-triazol-3-yl)thiophen-2-yl)-2-(2-oxo-6-(trifluoromethyl)-1,5-naphthyridin-1(2H)-yl)acetamide] | > 7.00 | > 7.00 | > 7.00 |
| Cn1cnc(-c2c(Cl)csc2NC(=O)Cn2c(=O)ccc3cnc(C(F)(F)F)cc32)n1 [N-(4-chloro-3-(1-methyl-1H-1,2,4-triazol-3-yl)thiophen-2-yl)-2-(2-oxo-7-(trifluoromethyl)-1,6-naphthyridin-1(2H)-yl)acetamide] | > 7.00 | > 7.00 | > 7.00 |
| Cn1cnc(-c2c(Cl)csc2NC(=O)Cn2c(=O)ccn3nc(C(F)(F)F)cc23)n1 [N-(4-chloro-3-(1-methyl-1H-1,2,4-triazol-3-yl)thiophen-2-yl)-2-(5-oxo-2-(trifluoromethyl)pyrazolo[1,5-a]pyrimidin-4(5H)-yl)acetamide] | > 7.00 | > 7.00 | > 7.00 |
| Cn1cnc(-c2c(Cl)csc2NC(=O)Cn2c(=O)ccn3nccc23)n1 [N-(4-chloro-3-(1-methyl-1H-1,2,4-triazol-3-yl)thiophen-2-yl)-2-(5-oxopyrazolo[1,5-a]pyrimidin-4(5H)-yl)acetamide] | > 7.00 | > 7.00 | > 7.00 |
| O=C(CN1C(=O)CCc2ncccc21)Nc1scc(Cl)c1-c1nc[nH]n1 [N-(4-chloro-3-(1H-1,2,4-triazol-3-yl)thiophen-2-yl)-2-(2-oxo-3,4-dihydro-1,5-naphthyridin-1(2H)-yl)acetamide] | > 7.00 | > 7.00 | > 7.00 |
| O=C(Cn1c(=O)ccc2cnc(C(F)(F)F)cc21)Nc1scc(Cl)c1-c1nc[nH]n1 [N-(4-chloro-3-(1H-1,2,4-triazol-3-yl)thiophen-2-yl)-2-(2-oxo-7-(trifluoromethyl)-1,6-naphthyridin-1(2H)-yl)acetamide] | > 7.00 | > 7.00 | > 7.00 |
| N#Cc1ccc2c(ccc(=O)n2CC(=O)Nc2scc(Cl)c2-c2nc[nH]n2)c1 [N-(4-chloro-3-(1H-1,2,4-triazol-3-yl)thiophen-2-yl)-2-(6-cyano-2-oxoquinolin-1(2H)-yl)acetamide] | > 7.00 | > 7.00 | > 7.00 |
| O=C(CN1C(=O)CCc2ccccc21)Nc1scc(Cl)c1-c1ncn[nH]1 [N-(4-chloro-3-(1H-1,2,4-triazol-5-yl)thiophen-2-yl)-2-(2-oxo-3,4-dihydroquinolin-1(2H)-yl)acetamide] | > 7.00 | > 7.00 | > 7.00 |
| O=C(Cn1c(=O)ccc2nc(C(F)(F)F)ccc21)Nc1scc(Cl)c1-c1ncn[nH]1 [N-(4-chloro-3-(1H-1,2,4-triazol-5-yl)thiophen-2-yl)-2-(2-oxo-6-(trifluoromethyl)-1,5-naphthyridin-1(2H)-yl)acetamide] | > 7.00 | > 7.00 | > 7.00 |
| O=C(Cn1c(=O)ccc2cc(C(F)(F)F)ccc21)Nc1scc(Cl)c1-c1ncn[nH]1 [N-(4-chloro-3-(1H-1,2,4-triazol-5-yl)thiophen-2-yl)-2-(2-oxo-6-(trifluoromethyl)quinolin-1(2H)-yl)acetamide] | > 7.00 | > 7.00 | > 7.00 |
| O=C(Cn1c(=O)ccn2nc(C(F)(F)F)cc12)Nc1scc(Cl)c1-c1ncn[nH]1 [N-(4-chloro-3-(1H-1,2,4-triazol-5-yl)thiophen-2-yl)-2-(5-oxo-2-(trifluoromethyl)pyrazolo[1,5-a]pyrimidin-4(5H)-yl)acetamide] | > 7.00 | > 7.00 | > 7.00 |
| O=C(Cn1c(=O)ccn2nccc12)Nc1scc(Cl)c1-c1ncn[nH]1 [N-(4-chloro-3-(1H-1,2,4-triazol-5-yl)thiophen-2-yl)-2-(5-oxopyrazolo[1,5-a]pyrimidin-4(5H)-yl)acetamide] | > 7.00 | > 7.00 | > 7.00 |
| O=C(Cc1ccc(C(F)(F)F)c2ncccc12)Nc1scc(Cl)c1-c1ncn[nH]1 [N-(4-chloro-3-(1H-1,2,4-triazol-5-yl)thiophen-2-yl)-2-(8-(trifluoromethyl)quinolin-5-yl)acetamide] | 5.00 to 7.00 | > 7.00 | 5.00 to 7.00 |
| O=C(Cc1cccc2ncccc12)Nc1scc(Cl)c1-c1ncn[nH]1 [N-(4-chloro-3-(1H-1,2,4-triazol-5-yl)thiophen-2-yl)-2-(quinolin-5-yl)acetamide] | > 7.00 | > 7.00 | > 7.00 |
| CCc1n[nH]c(-c2c(Cl)csc2NC(=O)CN2C(=O)CCc3ncccc32)n1 [N-(4-chloro-3-(3-ethyl-1H-1,2,4-triazol-5-yl)thiophen-2-yl)-2-(2-oxo-3,4-dihydro-1,5-naphthyridin-1(2H)-yl)acetamide] | > 7.00 | > 7.00 | 5.00 to 7.00 |
| CC(C)c1n[nH]c(-c2c(Cl)csc2NC(=O)CN2C(=O)CCc3ncccc32)n1 [N-(4-chloro-3-(3-isopropyl-1H-1,2,4-triazol-5-yl)thiophen-2-yl)-2-(2-oxo-3,4-dihydro-1,5-naphthyridin-1(2H)-yl)acetamide] | 5.00 to 7.00 | > 7.00 | 5.00 to 7.00 |
| Cc1n[nH]c(-c2c(Cl)csc2NC(=O)CN2C(=O)CCc3ncccc32)n1 [N-(4-chloro-3-(3-methyl-1H-1,2,4-triazol-5-yl)thiophen-2-yl)-2-(2-oxo-3,4-dihydro-1,5-naphthyridin-1(2H)-yl)acetamide] | > 7.00 | > 7.00 | > 7.00 |
| O=C(CN1C(=O)CCc2ncccc21)Nc1scc(Cl)c1-c1nccs1 [N-(4-chloro-3-(thiazol-2-yl)thiophen-2-yl)-2-(2-oxo-3,4-dihydro-1,5-naphthyridin-1(2H)-yl)acetamide] | > 7.00 | > 7.00 | > 7.00 |
